In paper PMC11255867 (Protein Science : A Publication of the Protein Society, 2024):

Biological target: T1, Gaussia luciferase (GLuc) (Gaussia princeps (in: crustaceans), UniProt Q9BLZ2)
T1 sequence (Q9BLZ2 18-185): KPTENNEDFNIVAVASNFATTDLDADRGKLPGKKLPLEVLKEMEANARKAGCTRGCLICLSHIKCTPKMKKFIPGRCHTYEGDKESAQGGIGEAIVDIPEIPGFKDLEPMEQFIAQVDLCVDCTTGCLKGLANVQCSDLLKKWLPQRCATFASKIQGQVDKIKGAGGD
Test: SDS-PAGE adduct formation
Type: biochemical
Settings: suicide inhibitor, covalent; oxidized without light; 20-fold molar excess, up to 24 h; 50 mM Tris-HCl pH 8.0

O=c1c(Cc2ccco2)nc2c(Cc3ccccc3)[nH]c(-c3ccccc3)cn1-2 [furimazine]
SDS-PAGE adduct formation; loss of luminescence with coelenterazine: FRZ is a suicide inhibitor of GLuc as it does not produce light with GLuc
